Data as given in PubChem BioAssay (NCI).
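Each compound was tested at five concentrations against cells in 96-well plates for 48 hours. GI50 is the concentration that inhibits growth by half. Definition used: TGI = concentration required for complete inhibition of growth.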

How the values were obtained:
Assay in all cases: DTP human tumour cell line panel, 48 h
SK-MEL-5 melanoma = system: SK-MEL-5 melanoma
NCI-H460 lung = system: NCI-H460 lung
DU-145 prostate = system: DU-145 prostate
HCT-116 colon = system: HCT-116 colon
MCF7 breast = system: MCF7 breast
SF-268 CNS = system: SF-268 CNS
HOP-62 NSCLC = system: HOP-62 NSCLC
A549 NSCLC = system: A549 NSCLC
BT-549 breast = system: BT-549 breast
LOX IMVI melanoma = system: LOX IMVI melanoma

Structure (SMILES)	TGI (SK-MEL-5 melanoma) [µM]	TGI (NCI-H460 lung) [µM]	TGI (DU-145 prostate) [µM]	TGI (HCT-116 colon) [µM]	TGI (MCF7 breast) [µM]	TGI (SF-268 CNS) [µM]	TGI (HOP-62 NSCLC) [µM]	TGI (A549 NSCLC) [µM]	TGI (BT-549 breast) [µM]	GI50 (SK-MEL-5 melanoma) [µM]	GI50 (NCI-H460 lung) [µM]	GI50 (DU-145 prostate) [µM]	GI50 (HCT-116 colon) [µM]	GI50 (MCF7 breast) [µM]	GI50 (SF-268 CNS) [µM]	GI50 (HOP-62 NSCLC) [µM]	GI50 (A549 NSCLC) [µM]	GI50 (BT-549 breast) [µM]	GI50 (LOX IMVI melanoma) [µM]	TGI (LOX IMVI melanoma) [µM]
O=C1CN(c2cccc(Cl)c2)C(=O)CN1CCN1CC(=O)N(c2cccc(Cl)c2)CC1=O	> 100	> 100	> 100	> 100	> 100	> 100	> 100	> 100	> 100											
COC[C@H]1Cn2cc(-c3nc(Nc4ccnn4C)ncc3C)nc2C(=O)N1Cc1ccc(F)c(F)c1	> 83.3	> 100	> 100	> 100	> 100	> 100	> 100	> 100	> 100	9.51	12.3	22.7	0.124	9.79	29.3	1.15	3.23	48.9	0.119	> 100
COc1ccc2nc3cc(Cl)ccc3c(NCCNCC(C)O)c2c1 (stereo not given)	3.06	2.99	8.57	3.17	5.51	12.3	4.09	3.16	21.8	1.68	0.668	2.12	0.751	1.28	2.36	1.31	1.52	7.92	1.15	2.66
COc1cc(-c2ccc3cc(OC)c(OC)c(OC)c3c2)cc(OC)c1OC			> 100	> 100	> 100	> 100	75.4	> 100	> 100			> 100	11.9	> 100	24	16.1	7.66	30.1	> 100	> 100
Nc1n[nH]c2cc(F)c([C@@H]3Nc4ccc5[nH]ncc5c4[C@H]4C5CCC(C5)[C@@H]34)cc12 (stereo not given in full)	0.355	5.86	8.75	1.24	9.18	14.9	9.12	> 50	2.59	0.128	0.177	0.205	0.174	0.115	0.368	0.222	0.201	0.141	0.158	6.47
N#Cc1c[nH]n2c(N=Nc3ccc(Cl)cc3)c(O)nc12	43.7	> 100	> 100	> 100	> 100	77.4	> 100	> 100	77.6	20.8	29.1	42.6	92.8	21	20.6	62.7	31.9	28.5	28.8	> 100
N[C@@H]1CCCC[C@@H]1N.O=P([O-])([O-])CN(CCN(CP(=O)([O-])[O-])CP(=O)([O-])[O-])CP(=O)([O-])[O-].[Pt+2]	> 25	> 25		> 25		> 25	> 25	> 25		> 25	> 25		> 25		> 25	> 25	> 25		> 25	> 25
CC(=O)O/N=C(/C)c1ccccc1O		> 100		> 100		> 100	> 100	> 100												> 100
O=C(/C=C/c1ccc([N+](=O)[O-])cc1)c1ccc(NCc2nc3ccccc3[nH]2)cc1	16.3	5.64				26.6	26.7													6.54
Cc1cc2c(C)[nH]nc2c(C(=O)O)c1C		> 100		> 100			> 100	> 100												
C/C(=N/Nc1ccc([N+](=O)[O-])cc1[N+](=O)[O-])C(CC(C(=O)NCc1ccccc1)/C(C)=N\Nc1ccc([N+](=O)[O-])cc1[N+](=O)[O-])C(=O)NCc1ccccc1 (stereo not given)		17.5		16.4		16.5	13.9	14.6												
CC1SC(c2ccc(F)cc2)N(NC(=O)C(O)c2ccccc2)C1=O (stereo not given)	> 100	> 100	> 100	> 100	> 100	> 100	> 100	> 100	> 100	> 100	> 100	> 100	> 100	> 100	> 100	> 100	> 100	> 100	> 100	> 100
Cc1nnc(NC(=O)c2nc(S(=O)(=O)Cc3ccc(F)cc3)ncc2Cl)s1	31.4	35.1	21.7	3.67	17.6	16.8	39.3	35.3	5.25	17	17.4	9.44	1.83	3.29	3.88	19.8	18.8	2.3	1.5	2.96
CC(=O)OCCOCNC(=S)N/N=C(\C)c1cnccn1	32.7	> 100		> 100		> 100	> 100	> 100												> 100
c1ccc(NCn2cnc3ccccc32)cc1	> 100	> 100		> 100		> 100		> 100												> 100
O=[N+]([O-])c1ccc(Cl)cc1N/N=C/c1ccnc2ccccc12	> 100	> 100	> 100	> 100	> 100	> 100	> 100	> 100	> 100											
CCOC(=S)SCC(=O)O	> 100	> 100		> 100	> 100	> 100	> 100	> 100	> 100											> 100
